Measurements from patent publication US20230085307A1, “PYRIDAZINONE COMPOUND AND HERBICIDE” (NISSAN CHEMICAL CORPORATION, priority 2019, published 2023).

Key:
late watergrass = experiment: Test Example 1: herbicidal activity, application before weed generation under submerged conditions (Table 16, symbol A); assay type: in vivo, late watergrass (Echinochloa oryzicola); settings: amount of applied herbicide 320 g/ha
In short: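 Emulsion formulation, water-diluted to set dose, was put onto the flooded surface (4 cm depth, alluvial soil) the same day weeds were sown and 2.5-leaf rice transplanted. After 3 weeks at 25-30 °C under glass, each species was rated 0 (≤5% kill) to 5 (≥90% kill).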

Japanese bulrush = experiment: Test Example 2: herbicidal activity, application during weed generation under submerged conditions (Table 17, symbol B); assay type: in vivo, Japanese bulrush (Schoenoplectus juncoides); settings: AAH 320 g/ha; application during weed generation, submerged conditions
In short: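 Steps: fill Wagner pots with alluvial soil; add water to give 4 cm depth; sow the species mixed; grow under glass at 25–30° C.; at 1–2 leaves apply water-diluted emulsion formulation to the water surface at a fixed herbicide amount; score after 3 weeks.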

Chinese sprangletop = experiment: Test Example 3: herbicidal effect by foliage application, Wagner pot (Table 18, symbol D); assay type: in vivo, chinese sprangletop (Leptochloa chinensis); settings: for herbicidal effect on D: Chinese sprangletop: amount of applied herbicide 320 g/ha; for herbicidal effect on Chinese sprangletop (D): 320 g/ha
In short: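 Plants were sown in alluvial soil held under 0.1–0.5 cm standing water and grown 14 days in a greenhouse at 25–30 °C. An emulsifiable formulation, water-diluted to the set dose, was then sprayed onto the foliage, and effects were scored three weeks later using previously defined criteria.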

green foxtail [1] = experiment: Test Example 4: herbicidal effect by soil treatment (Table 19, symbol G); assay type: in vivo, green foxtail (Setaria viridis); settings: amount of applied herbicide 320 g/ha
In short: (§1)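 Herbicidal effect was rated 3 weeks after treatment, using the scoring criteria of an earlier test. The compound, formulated as an emulsion and diluted in water to a set herbicide amount, had been sprayed uniformly on soil over freshly sown seeds. Growth took place in a greenhouse at 25° C. to 30° C.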

barnyard grass = experiment: Test Example 4: herbicidal effect by soil treatment (Table 19, symbol H); assay type: in vivo, barnyard grass (Echinochloa crus-galli); settings: amount of applied herbicide 320 g/ha
In short: as §1

wild oat [2] = experiment: Test Example 4: herbicidal effect by soil treatment (Table 19, symbol I); assay type: in vivo, wild oat (Avena fatua); settings: amount of applied herbicide 320 g/ha
In short: as §1

Italian ryegrass = experiment: Test Example 4: herbicidal effect by soil treatment (Table 19, symbol K); assay type: in vivo, Italian ryegrass (Lolium multiflorum); settings: amount of applied herbicide 320 g/ha
In short: as §1

windgrass [3] = experiment: Test Example 4: herbicidal effect by soil treatment (Table 19, symbol L); assay type: in vivo, windgrass (Apera spica-venti); settings: amount of applied herbicide 320 g/ha
In short: as §1

lambsquarters [4] = experiment: Test Example 4: herbicidal effect by soil treatment (Table 19, symbol O); assay type: in vivo, lambsquarters (Chenopodium album); settings: amount of applied herbicide 320 g/ha
In short: as §1

chickweed = experiment: Test Example 4: herbicidal effect by soil treatment (Table 19, symbol P); assay type: in vivo, common chickweed (Stellaria media); settings: amount of applied herbicide 320 g/ha
In short: as §1

green foxtail [5] = experiment: Test Example 5: herbicidal effect by foliage application, plastic box (Table 20, symbol G); assay type: in vivo, green foxtail (Setaria viridis); settings: foliage application, 320 g/ha, three weeks after application
In short: (§2)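 Foliar spray test: emulsion formulation diluted in water to a set application rate, sprayed onto 14-day-old plants raised in diluvial soil at 25° C to 30° C under glass. Both herbicidal effect and crop effect rated visually three weeks later.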

wild oat [6] = experiment: Test Example 5: herbicidal effect by foliage application, plastic box (Table 20, symbol I); assay type: in vivo, wild oat (Avena fatua); settings: foliage application, 320 g/ha, three weeks after application
In short: as §2

windgrass [7] = experiment: Test Example 5: herbicidal effect by foliage application, plastic box (Table 20, symbol L); assay type: in vivo, windgrass (Apera spica-venti); settings: foliage application, 320 g/ha, three weeks after application
In short: as §2

velvetleaf = experiment: Test Example 5: herbicidal effect by foliage application, plastic box (Table 20, symbol M); assay type: in vivo, velvetleaf (Abutilon theophrasti); settings: foliage application, 320 g/ha, three weeks after application
In short: as §2

redroot pigweed = experiment: Test Example 5: herbicidal effect by foliage application, plastic box (Table 20, symbol N); assay type: in vivo, redroot pigweed (Amaranthus retroflexus); settings: foliage application, 320 g/ha, three weeks after application
In short: as §2

lambsquarters [8] = experiment: Test Example 5: herbicidal effect by foliage application, plastic box (Table 20, symbol O); assay type: in vivo, lambsquarters (Chenopodium album); settings: foliage application, 320 g/ha, three weeks after application
In short: as §2

persian speedwell = experiment: Test Example 5: herbicidal effect by foliage application, plastic box (Table 20, symbol R); assay type: in vivo, Persian speedwell (Veronica persica); settings: foliage application, 320 g/ha, three weeks after application
In short: as §2

SMILES | Herbicidal effect, A: late watergrass (late watergrass) | herbicidal effect rating, B: Japanese bulrush (Japanese bulrush) | herbicidal effect on D: Chinese sprangletop (Chinese sprangletop) | G: green foxtail, herbicidal effect grade (green foxtail [5]) | I: wild oat, herbicidal effect grade (wild oat [6]) | L: windgrass, herbicidal effect grade (windgrass [7]) | M: velvetleaf, herbicidal effect grade (velvetleaf) | N: redroot pigweed, herbicidal effect grade (redroot pigweed) | O: lambsquarters, herbicidal effect grade (lambsquarters [8]) | R: persian speedwell, herbicidal effect grade (persian speedwell) | G: green foxtail, herbicidal effect grade (green foxtail [1]) | H: barnyard grass, herbicidal effect grade (barnyard grass) | I: wild oat, herbicidal effect grade (wild oat [2]) | K: Italian ryegrass, herbicidal effect grade (Italian ryegrass) | L: windgrass, herbicidal effect grade (windgrass [3]) | O: lambsquarters, herbicidal effect grade (lambsquarters [4]) | P: chickweed, herbicidal effect grade (chickweed) | herbicidal effect on Chinese sprangletop (D) (Chinese sprangletop) | also measured
CCCC(=O)Oc1c(C)nn(C)c(=O)c1-c1c(-c2ccc(OC(C)C)cc2)sc2cc(F)ccc12 [3-020] | 3 (Herbicidal rate of 40% or more and less than 70%) | 0 (Herbicidal rate of 5% or less (almost no effect)) | 3 (Herbicidal rate of 40% or more and less than 70%) | 0 (Herbicidal rate of 5% or less (almost no effect)) | 0 (Herbicidal rate of 5% or less (almost no effect)) | 0 (Herbicidal rate of 5% or less (almost no effect)) | 3 (Herbicidal rate of 40% or more and less than 70%) | 4 (Herbicidal rate of 70% or more and less than 90%) | 3 (Herbicidal rate of 40% or more and less than 70%) | 5 (Herbicidal rate of 90% or more (almost completely withered)) |  |  |  |  |  |  |  |  | herbicidal effect, G: green foxtail (green foxtail [1]): 0 (Herbicidal rate of 5% or less (almost no effect)); herbicidal effect, H: barnyard grass (barnyard grass): 0 (Herbicidal rate of 5% or less (almost no effect)); herbicidal effect, I: wild oat (wild oat [2]): 0 (Herbicidal rate of 5% or less (almost no effect)); herbicidal effect, K: Italian ryegrass (Italian ryegrass): 0 (Herbicidal rate of 5% or less (almost no effect)); herbicidal effect, L: windgrass (windgrass [3]): 0 (Herbicidal rate of 5% or less (almost no effect)); herbicidal effect, O: lambsquarters (lambsquarters [4]): 0 (Herbicidal rate of 5% or less (almost no effect)); herbicidal effect, P: chickweed (chickweed): 0 (Herbicidal rate of 5% or less (almost no effect))
CCOC(=O)Oc1c(C)nn(C)c(=O)c1-c1c(-c2ccccc2OC)sc2cc(F)ccc12 [3-024] | 3 (Herbicidal rate of 40% or more and less than 70%) | 3 (Herbicidal rate of 40% or more and less than 70%) | 3 (Herbicidal rate of 40% or more and less than 70%) | 5 (Herbicidal rate of 90% or more (almost completely withered)) | 3 (Herbicidal rate of 40% or more and less than 70%) | 5 (Herbicidal rate of 90% or more (almost completely withered)) | 5 (Herbicidal rate of 90% or more (almost completely withered)) | 5 (Herbicidal rate of 90% or more (almost completely withered)) | 4 (Herbicidal rate of 70% or more and less than 90%) | 1 (Herbicidal rate of 5% or more and less than 20%) | 3 (Herbicidal rate of 40% or more and less than 70%) | 3 (Herbicidal rate of 40% or more and less than 70%) | 3 (Herbicidal rate of 40% or more and less than 70%) | 1 (Herbicidal rate of 5% or more and less than 20%) | 3 (Herbicidal rate of 40% or more and less than 70%) | 4 (Herbicidal rate of 70% or more and less than 90%) | 3 (Herbicidal rate of 40% or more and less than 70%) |  | 
CCCC(=O)Oc1c(C)nn(C)c(=O)c1-c1c(-c2ccc(F)cc2OCC)sc2cc(Cl)ccc12 [3-046] | 4 (Herbicidal rate of 70% or more and less than 90%) | 2 (Herbicidal rate of 20% or more and less than 40%) |  | 5 (Herbicidal rate of 90% or more (almost completely withered)) | 5 (Herbicidal rate of 90% or more (almost completely withered)) | 4 (Herbicidal rate of 70% or more and less than 90%) | 4 (Herbicidal rate of 70% or more and less than 90%) | 4 (Herbicidal rate of 70% or more and less than 90%) | 3 (Herbicidal rate of 40% or more and less than 70%) | 3 (Herbicidal rate of 40% or more and less than 70%) | 0 (Herbicidal rate of 5% or less (almost no effect)) | 0 (Herbicidal rate of 5% or less (almost no effect)) | 0 (Herbicidal rate of 5% or less (almost no effect)) | 0 (Herbicidal rate of 5% or less (almost no effect)) | 5 (Herbicidal rate of 90% or more (almost completely withered)) | 3 (Herbicidal rate of 40% or more and less than 70%) | 4 (Herbicidal rate of 70% or more and less than 90%) | 2 (Herbicidal rate of 20% or more and less than 40%) | 
CCOc1ccccc1-c1sc2cc(C)ccc2c1-c1c(O)c(C)nn(C)c1=O [3-053] | 5 (Herbicidal rate of 90% or more (almost completely withered)) | 3 (Herbicidal rate of 40% or more and less than 70%) |  | 5 (Herbicidal rate of 90% or more (almost completely withered)) | 5 (Herbicidal rate of 90% or more (almost completely withered)) | 5 (Herbicidal rate of 90% or more (almost completely withered)) | 5 (Herbicidal rate of 90% or more (almost completely withered)) | 5 (Herbicidal rate of 90% or more (almost completely withered)) | 5 (Herbicidal rate of 90% or more (almost completely withered)) | 5 (Herbicidal rate of 90% or more (almost completely withered)) | 5 (Herbicidal rate of 90% or more (almost completely withered)) | 0 (Herbicidal rate of 5% or less (almost no effect)) | 4 (Herbicidal rate of 70% or more and less than 90%) | 4 (Herbicidal rate of 70% or more and less than 90%) | 5 (Herbicidal rate of 90% or more (almost completely withered)) | 4 (Herbicidal rate of 70% or more and less than 90%) | 4 (Herbicidal rate of 70% or more and less than 90%) | 4 (Herbicidal rate of 70% or more and less than 90%) | 
